Experimental data taken from the NIST ThermoML archive (doi:10.1021/je700281z).
Values joined by “and” are separate entries in the source; they are usually repeats but may differ in a detail not shown here. Identical values can stand only once.

What was measured:
[1] = 101.33 kPa, Liquid; for speed of sound: sound analyzer
[2] = xn = mol fraction of the nth substance listed; settings: 101 kPa, Liquid

CCOCCOCCO [3,6-dioxa-1-octanol]
[1]
Settings | mass density [kg/m3] | speed of sound [m/s]
293.15 K | 987.876 | 1392.3
298.15 K | 983.336 | 1374.3
303.15 K | 978.788 | 1356.6

COCCOCCO [2-(2-methoxyethoxy)ethanol] + CCCCO
[2]
Settings | mass density [kg/m3]
293.15 K, x1 = 0.0535 | 823.612
293.15 K, x1 = 0.1527 | 848.542
293.15 K, x1 = 0.2 | 860.004
293.15 K, x1 = 0.2003 | 860.091
293.15 K, x1 = 0.2518 | 872.235
293.15 K, x1 = 0.3009 | 883.531
293.15 K, x1 = 0.3032 | 884.084
293.15 K, x1 = 0.3546 | 895.622
293.15 K, x1 = 0.399 | 905.367
293.15 K, x1 = 0.4007 | 905.744
293.15 K, x1 = 0.4522 | 916.775
293.15 K, x1 = 0.5012 | 927.038
293.15 K, x1 = 0.5527 | 937.589
293.15 K, x1 = 0.5978 | 946.625
293.15 K, x1 = 0.6019 | 947.427
293.15 K, x1 = 0.6526 | 957.368
293.15 K, x1 = 0.6961 | 965.704
293.15 K, x1 = 0.7503 | 975.858
293.15 K, x1 = 0.7973 | 984.5
293.15 K, x1 = 0.8492 | 993.819
293.15 K, x1 = 0.8978 | 1002.37
293.15 K, x1 = 0.947 | 1010.88
298.15 K, x1 = 0.053 | 819.639
298.15 K, x1 = 0.1019 | 832.026
298.15 K, x1 = 0.1502 | 843.949
298.15 K, x1 = 0.2028 | 856.65
298.15 K, x1 = 0.2523 | 868.3
298.15 K, x1 = 0.3497 | 890.395
298.15 K, x1 = 0.454 | 912.946
298.15 K, x1 = 0.5507 | 932.958
298.15 K, x1 = 0.6013 | 943.061
298.15 K, x1 = 0.648 | 952.194
298.15 K, x1 = 0.6994 | 962.043
298.15 K, x1 = 0.7465 | 970.86
298.15 K, x1 = 0.7505 | 971.594
298.15 K, x1 = 0.7968 | 980.073
298.15 K, x1 = 0.7977 | 980.251
298.15 K, x1 = 0.8465 | 988.996
298.15 K, x1 = 0.8486 | 989.382
298.15 K, x1 = 0.8987 | 998.178
298.15 K, x1 = 0.899 | 998.234
298.15 K, x1 = 0.9481 | 1006.69
298.15 K, x1 = 0.9483 | 1006.72
303.15 K, x1 = 0.0508 | 815.157
303.15 K, x1 = 0.1014 | 827.941
303.15 K, x1 = 0.1471 | 839.22
303.15 K, x1 = 0.2015 | 852.303
303.15 K, x1 = 0.2528 | 864.365
303.15 K, x1 = 0.3048 | 876.239
303.15 K, x1 = 0.3503 | 886.405
303.15 K, x1 = 0.3555 | 887.558
303.15 K, x1 = 0.4005 | 897.361
303.15 K, x1 = 0.4503 | 908.007
303.15 K, x1 = 0.4981 | 917.96
303.15 K, x1 = 0.5518 | 928.933
303.15 K, x1 = 0.5996 | 938.439
303.15 K, x1 = 0.648 | 947.877
303.15 K, x1 = 0.6991 | 957.619
303.15 K, x1 = 0.7497 | 967.071
303.15 K, x1 = 0.7954 | 975.414
303.15 K, x1 = 0.8491 | 985.035
303.15 K, x1 = 0.8964 | 993.318
303.15 K, x1 = 0.9513 | 1002.75

CCCCOCCOCCO [3,6-dioxa-1-decanol] + CCCCO
[2]
Settings | mass density [kg/m3]
293.15 K, x1 = 0.1013 | 834.791
293.15 K, x1 = 0.1505 | 845.543
293.15 K, x1 = 0.2017 | 855.876
293.15 K, x1 = 0.2529 | 865.45
293.15 K, x1 = 0.3005 | 873.704
293.15 K, x1 = 0.3516 | 881.978
293.15 K, x1 = 0.4507 | 896.487
293.15 K, x1 = 0.5005 | 903.11
293.15 K, x1 = 0.5506 | 909.377
293.15 K, x1 = 0.6036 | 915.608
293.15 K, x1 = 0.6493 | 920.67
293.15 K, x1 = 0.7 | 925.984
293.15 K, x1 = 0.7292 | 928.912
293.15 K, x1 = 0.749 | 930.843
293.15 K, x1 = 0.8483 | 939.967
298.15 K, x1 = 0.0521 | 819.296
298.15 K, x1 = 0.15 | 841.555
298.15 K, x1 = 0.2022 | 852.057
298.15 K, x1 = 0.2535 | 861.607
298.15 K, x1 = 0.301 | 869.838
298.15 K, x1 = 0.3487 | 877.538
298.15 K, x1 = 0.4028 | 885.726
298.15 K, x1 = 0.4536 | 892.882
298.15 K, x1 = 0.6017 | 911.346
298.15 K, x1 = 0.6501 | 916.714
298.15 K, x1 = 0.7003 | 921.969
298.15 K, x1 = 0.7486 | 926.743
298.15 K, x1 = 0.7986 | 931.465
298.15 K, x1 = 0.8491 | 935.973
303.15 K, x1 = 0.0462 | 813.931
303.15 K, x1 = 0.0516 | 815.259
303.15 K, x1 = 0.1015 | 827.004
303.15 K, x1 = 0.1522 | 837.999
303.15 K, x1 = 0.2002 | 847.641
303.15 K, x1 = 0.2536 | 857.548
303.15 K, x1 = 0.3008 | 865.688
303.15 K, x1 = 0.3513 | 873.826
303.15 K, x1 = 0.3997 | 881.12
303.15 K, x1 = 0.4513 | 888.394
303.15 K, x1 = 0.5047 | 895.427
303.15 K, x1 = 0.552 | 901.283
303.15 K, x1 = 0.6546 | 912.925
303.15 K, x1 = 0.6992 | 917.561
303.15 K, x1 = 0.7074 | 918.41
303.15 K, x1 = 0.7476 | 922.362
303.15 K, x1 = 0.7976 | 927.051
303.15 K, x1 = 0.7988 | 927.176
303.15 K, x1 = 0.8959 | 935.611

CCOCCOCCO [3,6-dioxa-1-octanol] + CCCCO
[2]
Settings | mass density
293.15 K, x1 = 0.0519 | 823.011 kg/m3
293.15 K, x1 = 0.1029 | 835.52 kg/m3
293.15 K, x1 = 0.1999 | 857.73 kg/m3
293.15 K, x1 = 0.2989 | 878.535 kg/m3
293.15 K, x1 = 0.3513 | 888.856 kg/m3
293.15 K, x1 = 0.4015 | 898.337 kg/m3
293.15 K, x1 = 0.4514 | 907.402 kg/m3
293.15 K, x1 = 0.5492 | 924.169 kg/m3
293.15 K, x1 = 0.5966 | 931.866 kg/m3
293.15 K, x1 = 0.65 | 940.215 kg/m3
293.15 K, x1 = 0.7002 | 947.765 kg/m3
293.15 K, x1 = 0.7009 | 947.885 kg/m3
293.15 K, x1 = 0.7015 | 947.962 kg/m3
293.15 K, x1 = 0.7952 | 961.375 kg/m3
293.15 K, x1 = 0.8477 | 968.507 kg/m3
293.15 K, x1 = 0.8489 | 968.677 kg/m3
293.15 K, x1 = 0.8966 | 974.953 kg/m3
293.15 K, x1 = 0.95 | 981.736 kg/m3
298.15 K, x1 = 0.0512 | 818.966 kg/m3
298.15 K, x1 = 0.1017 | 831.315 kg/m3
298.15 K, x1 = 0.1026 | 831.513 kg/m3
298.15 K, x1 = 0.151 | 842.801 kg/m3
298.15 K, x1 = 0.1733 | 847.84 kg/m3
298.15 K, x1 = 0.2524 | 864.926 kg/m3
298.15 K, x1 = 0.35 | 884.465 kg/m3
298.15 K, x1 = 0.4025 | 894.359 kg/m3
298.15 K, x1 = 0.449 | 902.763 kg/m3
298.15 K, x1 = 0.452 | 903.287 kg/m3
298.15 K, x1 = 0.4995 | 911.551 kg/m3
298.15 K, x1 = 0.5992 | 927.958 kg/m3
298.15 K, x1 = 0.6015 | 928.324 kg/m3
298.15 K, x1 = 0.6487 | 935.658 kg/m3
298.15 K, x1 = 0.7001 | 943.37 kg/m3
298.15 K, x1 = 0.7491 | 950.466 kg/m3 and 950.476 kg/m3
298.15 K, x1 = 0.8 | 957.603 kg/m3
298.15 K, x1 = 0.8086 | 958.782 kg/m3
298.15 K, x1 = 0.8491 | 964.231 kg/m3
298.15 K, x1 = 0.8982 | 970.663 kg/m3
303.15 K, x1 = 0.0507 | 814.94 kg/m3
303.15 K, x1 = 0.1007 | 827.098 kg/m3
303.15 K, x1 = 0.1488 | 838.296 kg/m3
303.15 K, x1 = 0.1539 | 839.456 kg/m3
303.15 K, x1 = 0.1998 | 849.635 kg/m3
303.15 K, x1 = 0.2025 | 850.231 kg/m3
303.15 K, x1 = 0.2526 | 860.864 kg/m3
303.15 K, x1 = 0.3035 | 871.188 kg/m3
303.15 K, x1 = 0.3042 | 871.343 kg/m3
303.15 K, x1 = 0.3492 | 880.114 kg/m3
303.15 K, x1 = 0.4027 | 890.141 kg/m3
303.15 K, x1 = 0.4543 | 899.435 kg/m3
303.15 K, x1 = 0.5504 | 915.759 kg/m3
303.15 K, x1 = 0.5525 | 916.103 kg/m3
303.15 K, x1 = 0.5539 | 916.33 kg/m3
303.15 K, x1 = 0.6 | 923.723 kg/m3
303.15 K, x1 = 0.6019 | 924.03 kg/m3
303.15 K, x1 = 0.7506 | 946.255 kg/m3
303.15 K, x1 = 0.8006 | 953.229 kg/m3
303.15 K, x1 = 0.8496 | 959.837 kg/m3
303.15 K, x1 = 0.949 | 972.571 kg/m3

CCCCOCCOCCO [3,6-dioxa-1-decanol]
[1]
Settings | mass density [kg/m3] | speed of sound [m/s]
293.15 K | 952.196 | 1374.3
298.15 K | 948.103 | 1357
303.15 K | 943.743 | 1340

COCCOCCO [2-(2-methoxyethoxy)ethanol]
[1]
Settings | mass density [kg/m3] | speed of sound [m/s]
293.15 K | 1019.81 | 1432.4
298.15 K | 1015.41 | 1415.2
303.15 K | 1010.91 | 1397.9

CCCCO [butan-1-ol]
[1]
Settings | mass density [kg/m3] | speed of sound [m/s]
293.15 K | 809.644 | 1256.7
298.15 K | 805.842 | 1239.2
303.15 K | 801.995 | 1222.7
